PubChem BioAssay AID328 (DTP/NCI, 2004)
“And” between values parts separate entries of the source, which are not always exact repeats. Identical values can stand only once. Toxic doses and inconclusive results are not listed. The calls were made as follows: active = survival T/C of 150% or more; inactive = T/C below 125% in these data.

System: BDF1 mice, P388 leukemia ip, median survival T/C
Test: NCI In Vivo Anticancer Drug Screen. Data for tumor model P388 Leukemia (intraperitoneal) in B6D2F1 (BDF1) mice
Details: endpoint: median survival time, higher = longer survival
Outline: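 Reported as T/C, where T is the survival measurement in dosed animals and C the same measurement in vehicle controls.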

[1] = dose: 50.0 mg/kg/injection, schedule: Q01DX009 (ip), vehicle: saline
[2] = dose: 100.0 mg/kg/injection, schedule: Q01DX009 (ip), vehicle: saline
[3] = dose: 200.0 mg/kg/injection, schedule: Q01DX009 (ip), vehicle: saline
[4] = dose: 12.5 mg/kg/injection, schedule: Q01DX009 (ip), vehicle: saline with Tween-80
[5] = dose: 50.0 mg/kg/injection, schedule: Q01DX009 (ip), vehicle: saline with Tween-80
[6] = dose: 100.0 mg/kg/injection, schedule: Q01DX009 (ip), vehicle: saline with Tween-80
[7] = dose: 100.0 mg/kg/injection, schedule: Q01DX009 (ip), vehicle: other
[8] = dose: 100.0 mg/kg/injection, schedule: Q04DX003 (ip), vehicle: other
[9] = dose: 200.0 mg/kg/injection, schedule: Q04DX003 (ip), vehicle: other
[10] = dose: 400.0 mg/kg/injection, schedule: Q01DX009 (ip), vehicle: other
[11] = dose: 400.0 mg/kg/injection, schedule: Q04DX003 (ip), vehicle: other
[12] = dose: 100.0 mg/kg/injection, schedule: Q01DX009 (ip), vehicle: Klucel (hydroxypropylcellulose) (HPC)
[13] = dose: 100.0 mg/kg/injection, schedule: Q04DX003 (ip), vehicle: Klucel (hydroxypropylcellulose) (HPC)
[14] = dose: 200.0 mg/kg/injection, schedule: Q01DX009 (ip), vehicle: Klucel (hydroxypropylcellulose) (HPC)
[15] = dose: 200.0 mg/kg/injection, schedule: Q04DX003 (ip), vehicle: Klucel (hydroxypropylcellulose) (HPC)
[16] = dose: 400.0 mg/kg/injection, schedule: Q01DX009 (ip), vehicle: Klucel (hydroxypropylcellulose) (HPC)
[17] = dose: 400.0 mg/kg/injection, schedule: Q04DX003 (ip), vehicle: Klucel (hydroxypropylcellulose) (HPC)
[18] = dose: 25.0 mg/kg/injection, schedule: Q01DX009 (ip), vehicle: saline with Tween-80
[19] = dose: 200.0 mg/kg/injection, schedule: Q01DX009 (ip), vehicle: saline with Tween-80
[20] = dose: 100.0 mg/kg/injection, schedule: Q04DX003 (ip), vehicle: saline
[21] = dose: 400.0 mg/kg/injection, schedule: Q04DX003 (ip), vehicle: saline
[22] = dose: 100.0 mg/kg/injection, schedule: Q01DX001 (ip), vehicle: saline
[23] = dose: 200.0 mg/kg/injection, schedule: Q01DX001 (ip), vehicle: saline

Measured: T/C

CC1=CC(=O)NC1=O
inactive: dose: 4.3 mg/kg/injection, schedule: Q01DX009 (ip), vehicle: saline 114 % of control | dose: 6.4 mg/kg/injection, schedule: Q01DX009 (ip), vehicle: saline 102 % of control | dose: 9.6 mg/kg/injection, schedule: Q01DX009 (ip), vehicle: saline 117 % of control | dose: 14.0 mg/kg/injection, schedule: Q01DX009 (ip), vehicle: saline 123 % of control

NC(=O)/C=C/C(=O)O
inactive: dose: 25.0 mg/kg/injection, schedule: Q01DX009 (ip), vehicle: saline 101 % of control | [1] 93 % of control | [2] 103 % of control | [3] 101 % of control

CCOC(=O)/C=C(/C)Sc1cc(O)c2ccccc2c1O
inactive: dose: 1.56 mg/kg/injection, schedule: Q01DX009 (ip), vehicle: saline with Tween-80 101 % of control and 124 % of control | dose: 3.13 mg/kg/injection, schedule: Q01DX009 (ip), vehicle: saline with Tween-80 119 % of control and 120 % of control | dose: 6.25 mg/kg/injection, schedule: Q01DX009 (ip), vehicle: saline with Tween-80 124 % of control | [4] 114 % of control

Clc1ccc(C2(C3CCNCC3)CCCO2)cc1 (stereo unspecified)
inactive: [5] 106 % of control | [6] 90 % of control

CCOC(=O)C(C(C)=O)C(=O)OCC
inactive: dose: 25.0 mg/kg/injection, schedule: Q04DX003 (ip), vehicle: other 90 % of control | dose: 50.0 mg/kg/injection, schedule: Q01DX009 (ip), vehicle: other 113 % of control | dose: 50.0 mg/kg/injection, schedule: Q04DX003 (ip), vehicle: other 99 % of control | [7] 100 % of control | [8] 99 % of control | [9] 92 % of control | [10] 88 % of control | [11] 110 % of control

FC(F)(F)C1=NC(=S)C(c2[nH]c(C(F)(F)F)nc2S)=N1
inactive: dose: 3.12 mg/kg/injection, schedule: Q01DX009 (ip), vehicle: water 91 % of control | dose: 6.25 mg/kg/injection, schedule: Q01DX009 (ip), vehicle: water 99 % of control | dose: 12.5 mg/kg/injection, schedule: Q01DX009 (ip), vehicle: water 108 % of control | dose: 12.5 mg/kg/injection, schedule: Q04DX003 (ip), vehicle: water 89 % of control and 107 % of control | dose: 25.0 mg/kg/injection, schedule: Q01DX009 (ip), vehicle: water 103 % of control | dose: 25.0 mg/kg/injection, schedule: Q04DX003 (ip), vehicle: water 95 % of control and 100 % of control | dose: 50.0 mg/kg/injection, schedule: Q01DX009 (ip), vehicle: water 112 % of control | dose: 50.0 mg/kg/injection, schedule: Q04DX003 (ip), vehicle: water 89 % of control and 100 % of control | dose: 100.0 mg/kg/injection, schedule: Q01DX009 (ip), vehicle: water 110 % of control | dose: 100.0 mg/kg/injection, schedule: Q04DX003 (ip), vehicle: water 89 % of control and 105 % of control

CC(=O)CC(=O)Nc1ccc(Cl)cc1Cl
inactive: [12] 96 % of control | [13] 87 % of control | [14] 104 % of control | [15] 87 % of control | [16] 88 % of control | [17] 95 % of control

NC(=O)Nc1nc(-c2ccccc2)no1
inactive: [12] 95 % of control | [13] 100 % of control | [14] 100 % of control | [15] 109 % of control | [16] 90 % of control | [17] 100 % of control

CC(C)=CC=O
inactive: dose: 100.0 mg/kg/injection, schedule: Q01DX001 (ip), vehicle: saline with Tween-80 100 % of control | dose: 200.0 mg/kg/injection, schedule: Q01DX001 (ip), vehicle: saline with Tween-80 96 % of control | dose: 400.0 mg/kg/injection, schedule: Q01DX001 (ip), vehicle: saline with Tween-80 100 % of control

O=S(=O)(c1ccccc1)N1CN2CCN(C2)C1
inactive: [5] 107 % of control | [6] 124 % of control

Cn1c(=O)oc2ccc(Cl)cc21
inactive: [18] 122 % of control | [5] 115 % of control | [19] 91 % of control

O=[N+]([O-])C(CO)(CO)CO
inactive: [20] 95 % of control | dose: 200.0 mg/kg/injection, schedule: Q04DX003 (ip), vehicle: saline 100 % of control | [21] 100 % of control

CN(C)C1C(=O)C(C(=O)NCNC(CCS(C)=O)C(=O)O)=C(O)C2(O)C(=O)C3=C(O)c4c(O)cccc4C(C)(O)C3CC12 (stereo unspecified)
inactive: [22] 100 % of control | [23] 90 % of control | dose: 400.0 mg/kg/injection, schedule: Q01DX001 (ip), vehicle: saline 86 % of control

Cc1ccc(Nc2nc(N)nc(CNc3ccc(Cl)cc3)n2)cc1
inactive: dose: 100.0 mg/kg/injection, schedule: Q04DX003 (ip), vehicle: saline sonified 110 % of control | dose: 200.0 mg/kg/injection, schedule: Q04DX003 (ip), vehicle: saline sonified 100 % of control | dose: 400.0 mg/kg/injection, schedule: Q04DX003 (ip), vehicle: saline sonified 100 % of control

CC(=O)c1cccc(OCc2ccccc2)c1
inactive: [7] 118 % of control | [8] 100 % of control | dose: 200.0 mg/kg/injection, schedule: Q01DX009 (ip), vehicle: other 95 % of control | [9] 95 % of control | [10] 109 % of control | [11] 116 % of control

C1CCCC(NC2=NCCO2)CCC1
inactive: dose: 6.25 mg/kg/injection, schedule: Q04DX003 (ip), vehicle: saline with Tween-80 100 % of control | dose: 12.5 mg/kg/injection, schedule: Q04DX003 (ip), vehicle: saline with Tween-80 109 % of control | dose: 25.0 mg/kg/injection, schedule: Q04DX003 (ip), vehicle: saline with Tween-80 95 % of control

CC(C)(C)/C([O-])=N/[N+](C)(C)C
inactive: dose: 50.0 mg/kg/injection, schedule: Q01DX001 (ip), vehicle: saline 109 % of control | [22] 104 % of control | [23] 104 % of control

CN(C)C1C(=O)C(C(N)=O)=C(O)C2(O)C(=O)C3=C(O)c4c(O)cccc4C(C)(O)C3CC12.O.O.O.[Al] (stereo unspecified)
inactive: [12] 101 % of control | [14] 92 % of control | [16] 121 % of control

O=[N+]([O-])c1ccc(S/N=C\c2ccccc2)c([N+](=O)[O-])c1
inactive: [4] 107 % of control | [18] 105 % of control | [5] 105 % of control

COc1ccc(N2CSC(=S)N(c3ccc(OC)cc3)C2)cc1
inactive: dose: 100.0 mg/kg/injection, schedule: Q01DX001 (ip), vehicle: Klucel (hydroxypropylcellulose) (HPC) 100 % of control | [13] 95 % of control | [20] 87 % of control | dose: 200.0 mg/kg/injection, schedule: Q01DX001 (ip), vehicle: Klucel (hydroxypropylcellulose) (HPC) 87 % of control | [15] 91 % of control | dose: 400.0 mg/kg/injection, schedule: Q01DX001 (ip), vehicle: Klucel (hydroxypropylcellulose) (HPC) 95 % of control | [17] 104 % of control | [21] 100 % of control

CN(C)N/C=N/S(C)(=O)=O
inactive: [1] 101 % of control | [2] 101 % of control | [3] 109 % of control

CC1(C)OC(C)(C)c2c1nnc(-c1ccccc1[N+](=O)[O-])[n+]2[O-]
inactive: dose: 50.0 mg/kg/injection, schedule: Q01DX005 (ip), vehicle: saline with Tween-80 93 % of control | dose: 100.0 mg/kg/injection, schedule: Q01DX005 (ip), vehicle: saline with Tween-80 88 % of control | dose: 200.0 mg/kg/injection, schedule: Q01DX005 (ip), vehicle: saline with Tween-80 86 % of control

COc1ccc2c(c1)N(C(=O)N(CCOC(=O)Nc1ccccc1)CCOC(=O)Nc1ccccc1)c1ccccc1S2
inactive: [18] 95 % of control | [5] 91 % of control

O=C(N/N=C/c1cccc(S(=O)(=O)O)c1)c1ccncc1
inactive: [6] 97 % of control | [19] 86 % of control | dose: 400.0 mg/kg/injection, schedule: Q01DX009 (ip), vehicle: saline with Tween-80 94 % of control

CCOC(=O)c1c(C)cc(C)nc1[S][Sn]([Br])([Br])[S]c1nc(C)cc(C)c1C(=O)OCC
inactive: [5] 97 % of control | [6] 103 % of control | [19] 106 % of control
